Experimental data from US8420657B2 (Novartis AG, priority 2008, dated 2013).

Key:
GST-JAK2(808-1132) = biological target: T1, GST-JAK2(808-1132) (Homo sapiens, UniProt O60674); test: JAK2 kinase assay (Caliper mobility shift, LabChip 3000); format: biochemical
T1 construct: GST-JAK2(808-1132); purchased Invitrogen (Carlsbad, USA) #4288
In short: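 Eight-point compound series (final 10–0.003 μM) tested on purchased GST-JAK2 kinase domain (808-1132). Peptide FITC-JAK3tide plus ATP reacted 60 min, 30 °C, then quenched with EDTA; turnover from charge-based separation of substrate and product.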

[1] = tested on: JAK1/JAK2-dependent nuclear translocation of STAT1-GFP in HT1080 fibrosarcoma cells; test: STAT1 nuclear translocation assay (Cellomics), IFN-γ stimulated HT1080 STAT1-GFP cells; format: cell-based; conditions: Homo sapiens, HT-1080, STAT1 translocation pathway
Excerpt: The medium-throughput (96-well format) cellular automated fluorescence microscopy Cellomics assay can be routinely used to assess the functional activation of Janus Kinases (JAKs), based on the nuclear translocation of their substrate, Signal Transducer and Activator of Transcription (STAT). Nuclear translocation can be monitored either in HT1080 fibrosarcoma cells stably transfected with STAT1 fused to Green Fluorescence Protein (GFP) or in U-2 OS osteosarcoma cells stably transfected with STAT5 fused to Green Fluorescence Protein (GFP). Stimulation of HT1080 cells with interferon-γ (IFN-γ) results in JAK1/JAK2-dependent nuclear translocation of STAT1-GFP, whereas stimulation of U-2 OS cells with recombinant human erythropoietin (rhEpo) results in JAK2-dependent nuclear translocation of STAT5-GFP, both of which can be quantified using the Cellomics Cyto/NucTrans software package. This assay may be used to provide an assessment of the nuclear-cytoplasmic differential (NCD) of STAT-GFP using Hoechst dye to define the boundaries of the nucleus.
HT1080 fibrosarcoma cells may be obtained from ATCC and can be cultured in alpha Modified Eagle Medium with 10% FCS. Cells can be transfected with pEGFP-N2 STAT1 using Fugene 6 Transfection Reagent following the manufacturers' protocol. 24 hours after transfection the medium can be replaced and selected in 1 mg/ml Geneticin.
Compounds can be dissolved in DMSO to a final stock concentration of 10 mM and stored as aliquots at 4° C. Compounds may be pre-diluted in 100% DMSO at 10 mM, 3 mM 1 mM, 0.3 mM, 0.1 mM, 0.03 mM, 0.01 mM and 0.003 mM. Subsequently, compounds may be diluted in medium and added in 50 μl to the cells. The final compound concentrations tested may be 10 μM, 3 μM 1 μM, 0.3 μM, 0.1 μM, 0.03 μM, 0.01 μM and 0.003 μM and the final DMSO concentration can be 0.1%.
HT1080 STAT1-GFP cells may be seeded at a density of 10,000 cells per well in clear-bottom black 96-well Packard View-Plates™. 16-24 hours later, the cells can be treated for 2 hours with 100 ng/ml IFN-γ, washed twice in pre-warmed PBS and fixed in 200 μl of pre-warmed fixation solution (PBS, 3.7% Formaldehyde) for 10 minutes. The plates may be washed twice in 200 μl PBS and incubated, protected from light, in 100 μl of DNA-staining solution (PBS, 0.5 μg/ml Hoechst-33342) for 1 minute. The plates may then be washed once in PBS, and 200 μl PBS finally added per well. The plates, being finally covered with a black adhesive, may be either read directly or stored at 4° C. for later imaging. Where appropriate, the compounds may be added 30 min before stimulation with IFN-γ.
The plates can be read on a Cellomics® ArrayscanII automated fluorescence microscope plate reader equipped with a Mercury-Xenon white light illumination source and a Zeiss Axiovert inverted microscope, using the XF100 dichroic/emission filter cube and matching excitation filters, 10× magnification, and a 0.3 numerical aperture objective. Image acquisition and analysis can be performed using a customized protocol based on the ‘NuclearTranslocation’ Bioapplication. For each well, multiple images (fields) can be acquired until a minimum of 1000 cells are counted using two 2 channels: Channel 1 (Hoechst)=focus+nuclear mask, Channel 2 (GFP)=signal quantification in mask areas as outlined below. Nuclei may be first identified based on the Hoechst staining and a mask generated for each nucleus that then serves as a template to generate a circle (eroded inwards by 1 pixel) and a 3 pixel-wide collar-like ring (off-set outwards by 1 pixel), in which the nuclear and cytoplasmic intensity of GFP, respectively, are quantified in the corresponding channel. High content analysis yields numerous measurements per cell and the GFP intensity differential between the nuclear and the cytoplasmic masks may be chosen as a measure of sub-cellular STAT-GFP relocation. The resulting values may be averaged for all cells in the well to return a single measurement plus standard deviation. […]

T1 sequence (O60674 808-1132): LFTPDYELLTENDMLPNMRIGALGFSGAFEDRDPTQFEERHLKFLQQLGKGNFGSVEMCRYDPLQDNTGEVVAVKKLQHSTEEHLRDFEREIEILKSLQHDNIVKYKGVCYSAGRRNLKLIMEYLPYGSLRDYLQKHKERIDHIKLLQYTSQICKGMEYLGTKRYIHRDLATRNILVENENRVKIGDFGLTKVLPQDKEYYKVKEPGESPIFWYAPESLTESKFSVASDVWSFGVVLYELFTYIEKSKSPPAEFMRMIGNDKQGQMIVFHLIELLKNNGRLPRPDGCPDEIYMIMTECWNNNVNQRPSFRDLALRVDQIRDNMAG

Structure (SMILES)	IC50 (GST-JAK2(808-1132)) [µM]	IC50 [1] [µM]
O=C1CN(Cc2c(F)cc(-n3ccc4cnc(Nc5ccc(CN6CCN(C7CC7)CC6)cc5)nc43)cc2F)CCN1 [Example 340, 4-(4-{2-[4-(4-Cyclopropyl-piperazin-1-ylmethyl)-phenylamino]-pyrrolo[2,3-d]pyrimidin-7-yl}-2,6-difluoro-benzyl)-piperazin-2-one]	0.0072	0.27
CN1CCN(c2ccc(Nc3ncc4ccn(-c5cc(F)c(CN6CCS(=O)(=O)CC6)c(F)c5)c4n3)cn2)CC1 [Example 443, {7-[4-(1,1-Dioxido-thiomorpholin-4-ylmethyl)-3,5-difluoro-phenyl]-7H-pyrrolo[2,3-d]pyrimidin-2-yl}-[6-(4-methyl-piperazin-1-yl)-pyridin-3-yl]-amine]	≤ 0.003	0.0095
CN1CCN(C(=O)c2cc(Nc3ncc4ccn(-c5ccc(S(C)(=O)=O)cc5)c4n3)ccc2F)CC1 [Example 76, {2-Fluoro-5-[7-(4-methanesulfonyl-phenyl)-7H-pyrrolo[2,3-d]pyrimidin-2-ylamino]-phenyl}-(4-methyl-piperazin-1-yl)-methanone]	0.038	0.934
COc1cc(Nc2ncc3ccn(-c4cc(F)c(CN5CCOCC5)c(F)c4)c3n2)ccc1C [Example 307, [7-(3,5-Difluoro-4-morpholin-4-ylmethyl-phenyl)-7H-pyrrolo[2,3-d]pyrimidin-2-yl]-(3-methoxy-4-methyl-phenyl)-amine]	0.014	0.12
COc1ccc(Nc2ncc3ccn(-c4ccc(S(C)(=O)=O)cc4)c3n2)cc1OCCN1CCCC1 [Example 31, [7-(4-Methanesulfonyl-phenyl)-7H-pyrrolo[2,3-d]pyrimidin-2-yl]-[4-methoxy-3-(2-pyrrolidin-1-yl-ethoxy)-phenyl]-amine]	< 0.003	0.046
COc1cc(Nc2ncc3cc(C)n(-c4ccc(CC(=O)N5CCN(C)CC5)cc4)c3n2)ccc1F [Example 162, 2-{4-[2-(4-Fluoro-3-methoxy-phenylamino)-6-methyl-pyrrolo[2,3-d]pyrimidin-7-yl]-phenyl}-1-(4-methyl-piperazin-1-yl)-ethanone]	0.305	9.7
COc1ccc(Nc2ncc3ccn(-c4ccc(S(C)(=O)=O)cc4)c3n2)cn1 [Example 230, [7-(4-Methanesulfonyl-phenyl)-7H-pyrrolo[2,3-d]pyrimidin-2-yl]-(6-methoxy-pyridin-3-yl)-amine]	0.0205	2.48
C[C@@H]1CN[C@@H](C)CN1c1ccc(Nc2ncc3ccn(-c4cc(F)c(CN5CCOCC5)c(F)c4)c3n2)cn1 (racemic) [Example 271, [7-(3,5-Difluoro-4-morpholin-4-ylmethyl-phenyl)-7H-pyrrolo[2,3-d]pyrimidin-2-yl]-[6-((2R,5S)-2,5-dimethyl-piperazin-1-yl)-pyridin-3-yl]-amine]	0.0031	0.065
Cc1ccc(Nc2ncc3ccn(-c4ccc(C(=O)N5CCS(=O)(=O)CC5)c(F)c4)c3n2)cc1C [Example 291, {4-[2-(3,4-Dimethyl-phenylamino)-pyrrolo[2,3-d]pyrimidin-7-yl]-2-fluoro-phenyl}-(1,1-dioxido-thiomorpholin-4-yl)-methanone]	< 0.003	0.054
O=C(c1c(F)cc(-n2ccc3cnc(Nc4ccc(N5CCN(CCO)CC5)nc4)nc32)cc1F)N1CCOCC1 [Example 264, [2,6-Difluoro-4-(2-{6-[4-(2-hydroxy-ethyl)-piperazin-1-yl]-pyridin-3-ylamino}-pyrrolo[2,3-d]pyrimidin-7-yl)-phenyl]-morpholin-4-yl-methanone]	< 0.003	0.165
O=C(c1ccc(Nc2ncc3ccn(-c4cc(F)c(CN5CCOCC5)c(F)c4)c3n2)cc1)N1CCOCC1 [Example 138, {4-[7-(3,5-Difluoro-4-morpholin-4-ylmethyl-phenyl)-7H-pyrrolo[2,3-d]pyrimidin-2-ylamino]-phenyl}-morpholin-4-yl-methanone]	< 0.003	0.165
CC(=O)N1CCN(Cc2c(F)cc(-n3ccc4cnc(Nc5ccc(F)c(C)c5)nc43)cc2F)CC1 [Example 133, 1-(4-{2,6-Difluoro-4-[2-(4-fluoro-3-methyl-phenylamino)-pyrrolo[2,3-d]pyrimidin-7-yl]-benzyl}-piperazin-1-yl)-ethanone]	0.0071	0.573
COc1cc(Nc2ncc3ccn(-c4ccc(S(C)(=O)=O)cc4)c3n2)cc(OC)c1OC [Example 4, [7-(4-Methanesulfonyl-phenyl)-7H-pyrrolo[2,3-d]pyrimidin-2-yl]-(3,4,5-trimethoxy-phenyl)-amine]	0.0022	0.0367
COc1cc(Nc2ncc3ccn(-c4cc(F)c(CN5CCS(=O)(=O)CC5)c(F)c4)c3n2)ccc1C [Example 308, {7-[4-(1,1-Dioxido-thiomorpholin-4-ylmethyl)-3,5-difluoro-phenyl]-7H-pyrrolo[2,3-d]pyrimidin-2-yl}-(3-methoxy-4-methyl-phenyl)-amine]	< 0.003	0.015
COc1cc(Nc2ncc3ccn(-c4ccc(C(=O)N5CCOCC5)c(C)c4)c3n2)ccc1F [Example 296, {4-[2-(4-Fluoro-3-methoxy-phenylamino)-pyrrolo[2,3-d]pyrimidin-7-yl]-2-methyl-phenyl}-morpholin-4-yl-methanone]	< 0.003	1.1
O=C(c1ccc(Nc2ncc3ccn(-c4cc(F)c(CN5CCOCC5)c(F)c4)c3n2)cn1)N1CCOCC1 [Example 195, {5-[7-(3,5-Difluoro-4-morpholin-4-ylmethyl-phenyl)-7H-pyrrolo[2,3-d]pyrimidin-2-ylamino]-pyridin-2-yl}-morpholin-4-yl-methanone]	0.0053	0.352
Cc1ccc(Nc2ncc3ccn(-c4ccc(C(=O)NCCN5CCN(C)CC5)c(F)c4)c3n2)cc1C [Example 298, 4-[2-(3,4-Dimethyl-phenylamino)-pyrrolo[2,3-d]pyrimidin-7-yl]-2-fluoro-N-[2-(4-methyl-piperazin-1-yl)-ethyl]-benzamide]	0.023	2.21
COc1ccc(Nc2ncc3ccn(-c4ccc(S(C)(=O)=O)cc4)c3n2)cc1OCCN1CCOCC1 [Example 29, [7-(4-Methanesulfonyl-phenyl)-7H-pyrrolo[2,3-d]pyrimidin-2-yl]-[4-methoxy-3-(2-morpholin-4-yl-ethoxy)-phenyl]-amine]	< 0.003	0.091
CCOc1ccc(Nc2ncc3ccn(-c4ccc(CC(=O)N5CCN(CC)CC5)cc4)c3n2)cc1OCC [Example 165, 2-{4-[2-(3,4-Diethoxy-phenylamino)-pyrrolo[2,3-d]pyrimidin-7-yl]-phenyl}-1-(4-ethyl-piperazin-1-yl)-ethanone]	< 0.003	0.125
CCN1CCN(c2ccc(Nc3ncc4ccn(-c5ccc(CC(=O)N6CCS(=O)(=O)CC6)c(F)c5)c4n3)cc2C)CC1 [Example 292, 1-(1,1-Dioxido-thiomorpholin-4-yl)-2-(4-{2-[4-(4-ethyl-piperazin-1-yl)-3-methyl-phenylamino]-pyrrolo[2,3-d]pyrimidin-7-yl}-2-fluoro-phenyl)-ethanone]	< 0.003	0.0125
